In brackets after ≈: the same amount, converted by molar mass.
What was measured:
Clostridium histolyticum = test: In vitro activity against anaerobes in fluid Thioglycollate medium (Table II); format: cell-based; details: Hathewaya histolytica
Protocol: (§1) All the tests were carried out and (when necessary) scored under standard conditions. "MIC" means "minimum inhibitory concentration."
(§2) In vitro activity of 2-aminoalkyl-3-phenylindoles of the formula I
(§3) against anaerobes in fluid Thioglycollate medium

[1] = system: Bacteroides melaninogenicus; test: as above; format: cell-based
Protocol: as §1, §2, §3

Clostridium septicum = test: as above; format: cell-based
Protocol: as §1, §2, §3

Candida albicans = test: In vitro Anti-Candida activity, dilutions in Sabouraud's Dextrose Agar (Table III); format: cell-based; details: 48 h
Protocol: as §1
In vitro Anti-Candida Activity of 2-aminoalkyl-3-phenyl-
indoles of the formula I. Dilutions in Sabouraud's Dextrose
MIC (mcg/ml) after 48 hours

T. mentagrophytes = test: Effect against topical T. mentagrophytes infections in guinea pigs (Table VI); format: in vivo; set-up: Average Sum of lesion scores, Days 1-5 / Average Sum of lesion scores, Days 1-10: scale not given here; details: for Average Sum of lesion scores, Days 1-5: untreated controls 14.8; for Average Sum of lesion scores, Days 1-10: untreated controls 38.2
Protocol: as §1
Effect of some 2-aminoalkyl-3-phenylindoles of the formula II
against topical T. mentagrophytes infections in guinea pigs.

[2] = strain Atkisson, after 48 hours
[3] = strain Bertrand, after 48 hours
[4] = strain Burnside, after 48 hours
[5] = strain Kenndy 2, after 48 hours
[6] = strain Kennedy 1, after 48 hours
[7] = strain Shurelli, after 48 hours

## NCc1[nH]c2ccc(Cl)cc2c1-c1ccccc1 [C, 2-(1-aminomethyl)-5-chloro-3-phenylindole]
Clostridium histolyticum; 48 hrs
  MIC: 3 µg/mL (≈ 11.7 µM)
Clostridium histolyticum; 72 hrs
  MIC: 3 µg/mL (≈ 11.7 µM)
[1]; 48 hrs
  MIC: 7.5 µg/mL (≈ 29.2 µM)
[1]; 72 hrs
  MIC: 7.5 µg/mL (≈ 29.2 µM)
Clostridium septicum; 48 hrs
  MIC: 3 µg/mL (≈ 11.7 µM)
Clostridium septicum; 72 hrs
  MIC: 3 µg/mL (≈ 11.7 µM)
Candida albicans; strain 1, after 48 hours
  MIC: 75 µg/mL (≈ 292 µM)
Candida albicans; strain 2, after 48 hours
  MIC: 75 µg/mL (≈ 292 µM)
Candida albicans; strain 3, after 48 hours
  MIC: 75 µg/mL (≈ 292 µM)
Candida albicans; strain 4, after 48 hours
  MIC: 37.5 µg/mL (≈ 146 µM)
Candida albicans; strain 5, after 48 hours
  MIC: 75 µg/mL (≈ 292 µM)
Candida albicans; strain 6, after 48 hours
  MIC: 75 µg/mL (≈ 292 µM)
Candida albicans; strain 8, after 48 hours
  MIC: 75 µg/mL (≈ 292 µM)
Candida albicans; strain 9, after 48 hours
  MIC: 75 µg/mL (≈ 292 µM)
Candida albicans; strain 29, after 48 hours
  MIC: 37.5 µg/mL (≈ 146 µM)
Candida albicans; [2]
  MIC: 75 µg/mL (≈ 292 µM)
Candida albicans; [3]
  MIC: 75 µg/mL (≈ 292 µM)
Candida albicans; strain Bevan, after 48 hours
  MIC: 75 µg/mL (≈ 292 µM)
Candida albicans; strain Blunden, after 48 hours
  MIC: 75 µg/mL (≈ 292 µM)
Candida albicans; strain Bognay, after 48 hours
  MIC: 75 µg/mL (≈ 292 µM)
Candida albicans; strain Boyer, after 48 hours
  MIC: 75 µg/mL (≈ 292 µM)
Candida albicans; strain Burke, after 48 hours
  MIC: 75 µg/mL (≈ 292 µM)
Candida albicans; [4]
  MIC: 75 µg/mL (≈ 292 µM)
Candida albicans; strain Collins, after 48 hours
  MIC: 75 µg/mL (≈ 292 µM)
Candida albicans; strain Fix, after 48 hours
  MIC: 75 µg/mL (≈ 292 µM)
Candida albicans; strain Frazier, after 48 hours
  MIC: 75 µg/mL (≈ 292 µM)
Candida albicans; strain Fulcher, after 48 hours
  MIC: 75 µg/mL (≈ 292 µM)
Candida albicans; strain Gay, after 48 hours
  MIC: 75 µg/mL (≈ 292 µM)
Candida albicans; strain Hons, after 48 hours
  MIC: 75 µg/mL (≈ 292 µM)
Candida albicans; strain Johnson, after 48 hours
  MIC: 75 µg/mL (≈ 292 µM)
Candida albicans; [5]
  MIC: 75 µg/mL (≈ 292 µM)
Candida albicans; [6]
  MIC: 37.5 µg/mL (≈ 146 µM)
Candida albicans; strain Lehtman, after 48 hours
  MIC: 75 µg/mL (≈ 292 µM)
Candida albicans; strain Lusk, after 48 hours
  MIC: 75 µg/mL (≈ 292 µM)
Candida albicans; strain Merkel, after 48 hours
  MIC: 75 µg/mL (≈ 292 µM)
Candida albicans; strain Newcomb, after 48 hours
  MIC: 37.5 µg/mL (≈ 146 µM)
Candida albicans; strain Sherod, after 48 hours
  MIC: 75 µg/mL (≈ 292 µM)
Candida albicans; [7]
  MIC: 75 µg/mL (≈ 292 µM)
Candida albicans; strain Sparks, after 48 hours
  MIC: 75 µg/mL (≈ 292 µM)
Candida albicans; strain Tyner, after 48 hours
  MIC: 75 µg/mL (≈ 292 µM)
T. mentagrophytes; concentration 1%
  Average No. of Days to become negative, Cultures: 12.4 days
  Average No. of Days to become negative, Lesion: 14.4 days
  Average Sum of lesion scores, Days 1-5: 13.0
  Average Sum of lesion scores, Days 1-10: 25.0
T. mentagrophytes; concentration 4%
  Average No. of Days to become negative, Cultures: 5.6 days
  Average No. of Days to become negative, Lesion: 7.4 days
  Average Sum of lesion scores, Days 1-5: 10.0
  Average Sum of lesion scores, Days 1-10: 11.8

## NCc1[nH]c2cc(Br)c(Cl)cc2c1-c1ccccc1 [D, 2-aminomethyl-6-bromo-5-chloro-3-phenylindole]
Clostridium histolyticum; 48 hrs
  MIC: 0.3 µg/mL (≈ 0.894 µM)
Clostridium histolyticum; 72 hrs
  MIC: 0.3 µg/mL (≈ 0.894 µM)
[1]; 48 hrs
  MIC: 3 µg/mL (≈ 8.94 µM)
[1]; 72 hrs
  MIC: 3 µg/mL (≈ 8.94 µM)
Clostridium septicum; 48 hrs
  MIC: 0.75 µg/mL (≈ 2.23 µM)
Clostridium septicum; 72 hrs
  MIC: 0.75 µg/mL (≈ 2.23 µM)
Candida albicans; strain 1, after 48 hours
  MIC: 150 µg/mL (≈ 447 µM)
Candida albicans; strain 2, after 48 hours
  MIC: 150 µg/mL (≈ 447 µM)
Candida albicans; strain 3, after 48 hours
  MIC: 75 µg/mL (≈ 223 µM)
Candida albicans; strain 4, after 48 hours
  MIC: 37.5 µg/mL (≈ 112 µM)
Candida albicans; strain 5, after 48 hours
  MIC: 75 µg/mL (≈ 223 µM)
Candida albicans; strain 6, after 48 hours
  MIC: 150 µg/mL (≈ 447 µM)
Candida albicans; strain 8, after 48 hours
  MIC: 150 µg/mL (≈ 447 µM)
Candida albicans; strain 9, after 48 hours
  MIC: 150 µg/mL (≈ 447 µM)
Candida albicans; strain 29, after 48 hours
  MIC: 75 µg/mL (≈ 223 µM)
Candida albicans; [2]
  MIC: 150 µg/mL (≈ 447 µM)
Candida albicans; [3]
  MIC: 150 µg/mL (≈ 447 µM)
Candida albicans; strain Bevan, after 48 hours
  MIC: 150 µg/mL (≈ 447 µM)
Candida albicans; strain Blunden, after 48 hours
  MIC: 17.5 µg/mL (≈ 52.1 µM)
Candida albicans; strain Bognay, after 48 hours
  MIC: 75 µg/mL (≈ 223 µM)
Candida albicans; strain Boyer, after 48 hours
  MIC: 150 µg/mL (≈ 447 µM)
Candida albicans; strain Burke, after 48 hours
  MIC: 150 µg/mL (≈ 447 µM)
Candida albicans; [4]
  MIC: 75 µg/mL (≈ 223 µM)
Candida albicans; strain Collins, after 48 hours
  MIC: 75 µg/mL (≈ 223 µM)
Candida albicans; strain Fix, after 48 hours
  MIC: 75 µg/mL (≈ 223 µM)
Candida albicans; strain Frazier, after 48 hours
  MIC: 150 µg/mL (≈ 447 µM)
Candida albicans; strain Fulcher, after 48 hours
  MIC: 75 µg/mL (≈ 223 µM)
Candida albicans; strain Gay, after 48 hours
  MIC: 150 µg/mL (≈ 447 µM)
Candida albicans; strain Hons, after 48 hours
  MIC: 150 µg/mL (≈ 447 µM)
Candida albicans; strain Johnson, after 48 hours
  MIC: 150 µg/mL (≈ 447 µM)
Candida albicans; [5]
  MIC: 150 µg/mL (≈ 447 µM)
Candida albicans; [6]
  MIC: 17.5 µg/mL (≈ 52.1 µM)
Candida albicans; strain Lehtman, after 48 hours
  MIC: 150 µg/mL (≈ 447 µM)
Candida albicans; strain Lusk, after 48 hours
  MIC: 75 µg/mL (≈ 223 µM)
Candida albicans; strain Merkel, after 48 hours
  MIC: 75 µg/mL (≈ 223 µM)
Candida albicans; strain Newcomb, after 48 hours
  MIC: 17.5 µg/mL (≈ 52.1 µM)
Candida albicans; strain Sherod, after 48 hours
  MIC: 150 µg/mL (≈ 447 µM)
Candida albicans; [7]
  MIC: 150 µg/mL (≈ 447 µM)
Candida albicans; strain Sparks, after 48 hours
  MIC: 150 µg/mL (≈ 447 µM)
Candida albicans; strain Tyner, after 48 hours
  MIC: 75 µg/mL (≈ 223 µM)
T. mentagrophytes; concentration 1%
  Average No. of Days to become negative, Cultures: > 22 days
  Average No. of Days to become negative, Lesion: > 22 days
  Average Sum of lesion scores, Days 1-5: 11.6
  Average Sum of lesion scores, Days 1-10: 29.2
T. mentagrophytes; concentration 4%
  Average No. of Days to become negative, Cultures: 6.2 days
  Average No. of Days to become negative, Lesion: 8.8 days
  Average Sum of lesion scores, Days 1-5: 11.8
  Average Sum of lesion scores, Days 1-10: 14.2

## NCc1[nH]c2ccc(Cl)cc2c1-c1ccc(Cl)cc1Cl [E]
Clostridium histolyticum; 48 hrs
  MIC: 0.3 µg/mL (≈ 0.921 µM)
Clostridium histolyticum; 72 hrs
  MIC: 0.3 µg/mL (≈ 0.921 µM)
[1]; 48 hrs
  MIC: 3 µg/mL (≈ 9.21 µM)
[1]; 72 hrs
  MIC: 3 µg/mL (≈ 9.21 µM)
Clostridium septicum; 48 hrs
  MIC: 0.75 µg/mL (≈ 2.3 µM)
Clostridium septicum; 72 hrs
  MIC: 0.75 µg/mL (≈ 2.3 µM)
Candida albicans; strain 1, after 48 hours
  MIC: 37.5 µg/mL (≈ 115 µM)
Candida albicans; strain 2, after 48 hours
  MIC: 37.5 µg/mL (≈ 115 µM)
Candida albicans; strain 3, after 48 hours
  MIC: 37.5 µg/mL (≈ 115 µM)
Candida albicans; strain 4, after 48 hours
  MIC: 17.5 µg/mL (≈ 53.7 µM)
Candida albicans; strain 5, after 48 hours
  MIC: 17.5 µg/mL (≈ 53.7 µM)
Candida albicans; strain 6, after 48 hours
  MIC: 37.5 µg/mL (≈ 115 µM)
Candida albicans; strain 8, after 48 hours
  MIC: 37.5 µg/mL (≈ 115 µM)
Candida albicans; strain 9, after 48 hours
  MIC: 37.5 µg/mL (≈ 115 µM)
Candida albicans; strain 29, after 48 hours
  MIC: 37.5 µg/mL (≈ 115 µM)
Candida albicans; [2]
  MIC: 37.5 µg/mL (≈ 115 µM)
Candida albicans; [3]
  MIC: 37.5 µg/mL (≈ 115 µM)
Candida albicans; strain Bevan, after 48 hours
  MIC: 37.5 µg/mL (≈ 115 µM)
Candida albicans; strain Blunden, after 48 hours
  MIC: 37.5 µg/mL (≈ 115 µM)
Candida albicans; strain Bognay, after 48 hours
  MIC: 37.5 µg/mL (≈ 115 µM)
Candida albicans; strain Boyer, after 48 hours
  MIC: 37.5 µg/mL (≈ 115 µM)
Candida albicans; strain Burke, after 48 hours
  MIC: 37.5 µg/mL (≈ 115 µM)
Candida albicans; [4]
  MIC: 37.5 µg/mL (≈ 115 µM)
Candida albicans; strain Collins, after 48 hours
  MIC: 37.5 µg/mL (≈ 115 µM)
Candida albicans; strain Fix, after 48 hours
  MIC: 37.5 µg/mL (≈ 115 µM)
Candida albicans; strain Frazier, after 48 hours
  MIC: 37.5 µg/mL (≈ 115 µM)
Candida albicans; strain Fulcher, after 48 hours
  MIC: 37.5 µg/mL (≈ 115 µM)
Candida albicans; strain Gay, after 48 hours
  MIC: 37.5 µg/mL (≈ 115 µM)
Candida albicans; strain Hons, after 48 hours
  MIC: 37.5 µg/mL (≈ 115 µM)
Candida albicans; strain Johnson, after 48 hours
  MIC: 37.5 µg/mL (≈ 115 µM)
Candida albicans; [5]
  MIC: 37.5 µg/mL (≈ 115 µM)
Candida albicans; [6]
  MIC: 37.5 µg/mL (≈ 115 µM)
Candida albicans; strain Lehtman, after 48 hours
  MIC: 37.5 µg/mL (≈ 115 µM)
Candida albicans; strain Lusk, after 48 hours
  MIC: 37.5 µg/mL (≈ 115 µM)
Candida albicans; strain Merkel, after 48 hours
  MIC: 37.5 µg/mL (≈ 115 µM)
Candida albicans; strain Newcomb, after 48 hours
  MIC: 17.5 µg/mL (≈ 53.7 µM)
Candida albicans; strain Sherod, after 48 hours
  MIC: 37.5 µg/mL (≈ 115 µM)
Candida albicans; [7]
  MIC: 37.5 µg/mL (≈ 115 µM)
Candida albicans; strain Sparks, after 48 hours
  MIC: 37.5 µg/mL (≈ 115 µM)
Candida albicans; strain Tyner, after 48 hours
  MIC: 37.5 µg/mL (≈ 115 µM)
T. mentagrophytes; concentration 1%
  Average No. of Days to become negative, Cultures: > 22 days
  Average No. of Days to become negative, Lesion: > 22 days
  Average Sum of lesion scores, Days 1-5: 12.6
  Average Sum of lesion scores, Days 1-10: 34.2
T. mentagrophytes; concentration 4%
  Average No. of Days to become negative, Cultures: 6.6 days
  Average No. of Days to become negative, Lesion: 9.2 days
  Average Sum of lesion scores, Days 1-5: 11.6
  Average Sum of lesion scores, Days 1-10: 15.2
